The record followed here is publication PMC7094215, “Synthesis and Evaluation of Antileishmanial and Cytotoxic Activity of Benzothiopyrane Derivatives” (Molecules, 2020).

The subject of data set [1] is intracellular amastigotes of L. panamensis (MHOM/CO/87/UA140-EGFP strain). The experiment in a line: In vitro antileishmanial activity on intracellular amastigotes (GFP, flow cytometry). The note with it: for SI (Selectivity Index = LC50/EC50): LC50 U-937 / EC50 L. panamensis amastigotes; for EC50: intracellular amastigotes in U-937 cells, 72 h exposure, mean ± SD, Probit. The data set is classed as cell-based, Leishmania (V) panamensis. The method, then: Antileishmanial activity of compounds was determined according to the ability of the compound to reduce the infection by L. panamensis parasites. For this, the antileishmanial activity was tested on intracellular amastigotes of L. panamensis transfected with the green fluorescent protein gene (MHOM/CO/87/UA140-EGFP strain). Briefly, U-937 human cells at a density of 3 × 10^5 cells/mL in RPMI 1640 and 0.1 μg/mL of PMA (phorbol-12-myristate-13-acetate) were dispensed on 24-wells microplate and then infected with stationary phase growing L. panamensis promastigotes in 15:1 parasites per cell ratio. Plates were incubated at 34 °C and 5% CO2 for 3 h, and then cells were washed twice with phosphate buffer solution (PBS) to eliminate not internalized parasites. Fresh RPMI-1640 was added into each well (1 mL), and plates were incubated again. After 24 h of infection, the RPMI-1640 medium was replaced by fresh culture medium containing each compound at four serial dilutions (50, 12.5, 3.125 and 0.78 μg/mL) and plates were then incubated at 37 °C and 5% CO2 during 72 h, then, cells were removed from the bottom plate with 100 µL of EDTA/trypsin (250 mg) solution. The cells were centrifuged at 1100 rpm during 10 min at 4 °C, the supernatant was discarded, and cells were washed with 1 mL of cold PBS and centrifuged at 1100 rpm for 10 min at 4 °C. Cells were washed two times employing PBS, as previously, and after the last wash, the supernatant was discarded, and cells were suspended in 500 μL of PBS.
Cells were analyzed by flow cytometry employing a flow cytometer (FC 500MPL, Cytomics, Beckman Coulter. Pasadena, CA, USA) reading at 488 nm (exciting) and 525 nm (emitting) over an argon laser and counting 10,000 events. Infected cells were determined according to the events for green fluorescence (parasites). All determinations for each compound and standard drug were carried out by triplicate, in two experiments. Infected cells exposed to control drug (amphotericin B) were used as the control for antileishmanial activity (positive control), while infected cells incubated in the absence of any compound or drug were used as another control for infection (negative control). Nonspecific fluorescence was corrected by subtracting the fluorescence of unstained cells. Determinations were done by triplicate in at least two independent experiments.
The antileishmanial activity was determined according to the reduction of the percentage of fluorescent parasites determined according to the median fluorescence intensity (MFI) obtained for each experimental condition by cytometry. The parasite values for each concentration of compound were calculated by Equation (3), where the % of parasites in control well, corresponds to 100% of parasites:(3) % Parasites=(MFI exposed parasites/MFI unexposed parasites)×100
Then, the inhibition percentage was calculated with Equation (4):(4) % Inhibitors of Parasites=100−(% Parasites)
Results of antileishmanial activities were expressed as the median effective concentrations (EC50) measured by Probit method.
On the technique in general: In flow cytometry, cells or beads pass a laser one at a time.

Data set [2] is described as follows: Cytotoxic activity, MTT method. The data set is classed as cell-based. The following applies: human, LC50. The method, then:
Cytotoxicity of the compounds was evaluated on human monocytes (U-937 ATCC CRL-1593.2) in an exponential growth phase and adjusted at 1 × 10^5 cells/mL in RPMI-1640 enriched with 10% fetal bovine serum (FBS). One hundred microliters of cell suspension were dispensed in each well of a 96-wells microplate, and then 100 μL of 200-50-12.5 and 3.125 μg/mL concentration of each compound or standard drug (amphotericin B) were added dissolved in PBS with 0.5% DMSO. Cell exposed to compounds or standard drugs were incubated 72 h at 37 °C and 5% of CO2. Cytotoxic activity of each compound was determined according to the effect on the cell viability by the MTT microenzymatic method in which 3-(4,5-dimethylthiazol-2-yl)-2,5-diphenyltetrazolium bromide is reduced to a purple formazan product by mitochondrial enzyme succinate dehydrogenase. Thus, 10 μL/well of MTT solution (5 mg/mL) was added to each well of exposed and unexposed cells, and plates were incubated at 37 °C, 5% CO2 during 3 h. The reaction was stopped by adding 100 μL/well of isopropanol with 50% and 10% of SDS (sodium dodecyl sulfate). The concentration of formazan was determined spectrophotometrically at 570 nm (Varioskan, Thermo, Waltham, MA, USA) and intensity of color (absorbance) was registered as O.D. Cells exposed to control drug (amphotericin B) were used as control for toxicity (positive control) while cell incubated in the absence of any compound or drug were used as control for viability (negative control). Non-specific absorbance was corrected by subtracting absorbance (O.D) of the blank. Determinations were done by triplicate in at least two independent experiments.
Cytotoxicity was determined according to viability and mortality percentages obtained for each experimental condition (synthesized compounds, amphotericin B, and culture medium). Results were expressed as the mean lethal concentrations (LC50), the concentration necessary to kill 50% of cells, calculated by the parametric method of linear regression that permits doses-response analysis (Probit analysis).
Initially, viability percentages were calculated by Equation (1), where the O.D of control well, corresponds to 100% of viability:(1) % Viability=(O.D. exposed cells/O.D. unexposed cells)×100
Then, the percentage of cell growth inhibition was calculated using Equation (2):(2) % Inhibition =100−(% Viability)
The toxicity was defined according to LC50 values, using the follow scale: Toxic; LC50 < 100 μM; moderately toxic; LC50 > 100 μM and < 200 μM and potentially nontoxic; LC50 > 200 μM.
(In general: Tetrazolium dyes change colour on reduction, which living cells bring about.)

Setting [3] is: Leishmania panamensis, U-937, 72 h.

A value given as a limit tells only on which side of the number the result lay.

A word on the EC50: it is the concentration needed to bring the measured effect to its halfway point. High values mean weaker potency, low ones greater potency. As usually defined, the CC50 is the concentration that lowers cell viability or growth by half. For the compound `CCCCCCCCCCOC(=O)C1CC(=O)c2ccccc2S1` (stereo not shown) [Compound 22d, Decyl 4-oxo-thiochromane-2-carboxylate], the “SI (Selectivity Index = LC50/EC50)” value in data set [1] is < 1.0. Further, in data set [1] (setting [3]), the EC50 was > 144 µM. In addition, half-maximal cytotoxicity in data set [2] (CC50 at 72 h) was put at 140 ± 20.7 µM.
On the same counts, the results for `CCCCCCCCCCCCNC(=O)C1CC(=O)c2ccccc2S1` (stereo not shown) [Compound 24b, N-dodecyl-4-oxo-thiochromane-2-carboxamide] are < 1.8, > 80 µM and 148 ± 45.4 µM.
For `CCCCOC(=O)C1CC(=O)c2ccccc2S1` (stereo not shown) [Compound 22b, Butyl 4-oxo-thiochromane-2-carboxylate], the “SI (Selectivity Index = LC50/EC50)” value in data set [1] is recorded as < 1.2. In addition, the EC50 in data set [1] (setting [3]) was > 189 µM. The compound further had a CC50 at 72 h in data set [2] of 231 ± 44.5 µM.
With `CCOC(=O)C1CC(=NNC(=O)c2ccncc2)c2ccccc2S1` (stereo not shown) [Compound 26b, Ethyl 4-(2-isonicotinoylhydrazineylidene)thiochromane-2-carboxylate], in data set [1], the “SI (Selectivity Index = LC50/EC50)” value came to 0.3. This compound also displayed an EC50 in data set [1] (setting [3]) of 53.2 ± 41 µM. The compound further came in with a CC50 at 72 h in data set [2] of 15.2 ± 0.2 µM.
`O=C(C1=Cc2ccccc2SC1c1ccc(C(F)(F)F)cc1)c1ccc(Cl)cc1` (stereo not shown) [Compound 15b, (4-Chlorophenyl)(2-(4-(trifluoromethyl)phenyl)-2H-thiochromen-3-yl)methanone]: the “SI (Selectivity Index = LC50/EC50)” value in data set [1] stood at 2.6. In data set [1] (setting [3]), this compound had an EC50 of 37.9 ± 2.8 µM. Further, in data set [2], the cytotoxic concentration (CC50) at 72 h amounted to 97.2 ± 14.2 µM.
On the same counts, the results for `O=CC1=Cc2ccccc2SC1c1ccccc1` (stereo not shown) [Compound 13a, 2-Phenyl-2H-thiochromene-3-carbaldehyde] are < 2.3, > 23.8 µM and 54.7 ± 3.2 µM.
The compound `O=C(C1=Cc2ccccc2SC1c1ccccc1)c1ccccc1` (stereo not shown) [Compound 15a, Phenyl(2-phenyl-2H-thiochromen-3-yl)methanone] showed an EC50 in data set [1] (setting [3]) of 43.9 ± 11.6 µM. Also, in data set [2], the CC50 at 72 h was > 609 µM.
As for `CCCCCCNC(=O)C1CC(=O)c2ccccc2S1` (stereo not shown) [Compound 24a, N-hexyl-4-oxo-thiochromane-2-carboxamide], the “SI (Selectivity Index = LC50/EC50)” value in data set [1] worked out at 0.7. The EC50 in data set [1] (setting [3]) came out at 216 ± 2.5 µM. Further, the half-maximal cytotoxic concentration (CC50) at 72 h in data set [2] amounted to 157 ± 9.7 µM.
On the same counts, the results for `Cc1ccccc1NC(=O)C1CC(=O)c2ccccc2S1` (stereo not shown) [Compound 24c, 4-Oxo-N-(o-tolyl)thiochromane-2-carboxamide] are < 1.2, > 101 µM and 119 ± 10.9 µM.
For the compound `C[C@@H]1[C@H](O)[C@@H](C)/C=C/C=C/C=C/C=C/C=C/C=C/C=C/[C@H](O[C@@H]2O[C@H](C)[C@@H](O)[C@H](N)[C@@H]2O)C[C@@H]2O[C@](O)(C[C@@H](O)C[C@@H](O)[C@H](O)CC[C@@H](O)C[C@@H](O)CC(=O)O[C@H]1C)C[C@H](O)[C@H]2C(=O)O` [Amphotericin B, reference compound], in data set [1] (setting [3]), a half-maximal response (EC50) required 0.05 µM. This compound gave a half-maximal cytotoxic concentration (CC50) at 72 h in data set [2] of 56.8 µM.
With `CC(=O)C1=Cc2ccccc2SC1c1ccccc1` (stereo not shown) [Compound 8c, 1-(2-Phenyl-2H-thiochromen-3-yl)ethan-1-one], the “SI (Selectivity Index = LC50/EC50)” value in data set [1] was < 2.3. The 50% effective concentration (EC50) in data set [1] (setting [3]) was > 2.6 µM. This compound also showed a CC50 at 72 h in data set [2] of 6 ± 0.4 µM.
For `O=CC1=Cc2ccccc2SC1c1ccc(Cl)cc1` (stereo not shown) [Compound 13c, 2-(4-Chlorophenyl)-2H-thiochromene-3-carbaldehyde] the same measures were 4.3, 37 ± 5.6 µM and 161 ± 27.9 µM.
On the same counts, the results for `COc1ccc2c(c1)C(=O)CC(C(=O)O)S2` (stereo not shown) [Compound 20c, 6-Methoxy-4-oxo-thiochromane-2-carboxylic acid] are 0.2, 494 ± 324 µM and 76.3 ± 8.6 µM.
As to `COC(=O)C1=Cc2ccccc2SC1` [Compound 8b, Methyl 2H-thiochromene-3-carboxylate], the “SI (Selectivity Index = LC50/EC50)” value in data set [1] was 2.8. Further, in data set [1] (setting [3]), the half-maximal effective concentration (EC50) worked out at 126 ± 15.5 µM. Also, the “antileishmanial activity (in words)” value in data set [1] (intracellular amastigotes of L. panamensis) is “practically inactive”. Also, the CC50 at 72 h in data set [2] was found to be 352 ± 47.5 µM.
`N#CC1=Cc2ccccc2SC1` [Compound 8a, 2H-Thiochromene-3-carbonitrile]: the “SI (Selectivity Index = LC50/EC50)” value in data set [1] was 0.7. In data set [2], half-maximal cytotoxicity (CC50 at 72 h) was put at 4 ± 0.6 µM.
In the case of `O=C1CC(C(=O)O)Sc2ccccc21` (racemic) [Compound 20a, 4-Oxothiochromane-2-carboxylic acid], in data set [1], the “SI (Selectivity Index = LC50/EC50)” value is listed as 0.3. In data set [1] (setting [3]), this compound came in with a 50% effective concentration (EC50) of 414 ± 58.5 µM. Besides, the half-maximal cytotoxic concentration (CC50) at 72 h in data set [2] was 133 ± 67.7 µM.
For `COC(=O)C1CSc2ccccc2C1=O` (stereo not shown) [Compound 9b + 10b, Methyl 4-oxo-thiochromane-3-carboxylate] the same measures were 3.6, 134 ± 27 µM and 485 ± 45.4 µM.
For `O=C1CC(C(=O)O)Sc2ccc(F)cc21` (stereo not shown) [Compound 20b, 6-Fluoro-4-oxo-thiochromane-2-carboxylic acid] the same measures were 0.1, 3520 ± 3010 µM and 210 ± 78.7 µM.
Regarding `CCCCCC1Sc2ccccc2C(O)=C1C(C)=O` (stereo not shown) [Compound 10d, 1-(4-Hydroxy-2-pentyl-2H-thiochromen-3-yl)ethan-1-one], the “SI (Selectivity Index = LC50/EC50)” value in data set [1] is on record as 4.1. The EC50 was < 20 µM in data set [1] (setting [3]) and 12.5 ± 3.3 µM in data set [1]. It took 51 ± 9 µM to reach half-maximal cytotoxicity in data set [2] (CC50 at 72 h).
For the compound `O=CC1=Cc2ccccc2SC1c1ccccc1[N+](=O)[O-]` (stereo not shown) [Compound 13d, 2-(2-Nitrophenyl)-2H-thiochromene-3-carbaldehyde], the “SI (Selectivity Index = LC50/EC50)” value in data set [1] amounted to 2.6. The compound further gave a CC50 at 72 h in data set [2] of 23.9 ± 2.4 µM.
`O=CC1=Cc2ccccc2SC1c1ccc(F)cc1` (stereo not shown) [Compound 13b, 2-(4-Fluorophenyl)-2H-thiochromene-3-carbaldehyde]: the “SI (Selectivity Index = LC50/EC50)” value in data set [1] is recorded as 0.3. This compound also returned a half-maximal effective concentration (EC50) in data set [1] (setting [3]) of 29.7 ± 4.4 µM. The compound further displayed a half-maximal cytotoxic concentration (CC50) at 72 h in data set [2] of 9.6 ± 0.4 µM.
Regarding `O=C1CC(C(=O)O)Sc2ccccc21` (stereo not drawn) [20a (+), 4-oxo-thiochroman-2-carboxylic acid], in data set [1], the “SI (Selectivity Index = LC50/EC50)” value was > 0.1 and a half-maximal effect (EC50) was put at 505 ± 133 µM. Moreover, the cytotoxic concentration (CC50) at 72 h in data set [2] is > 48.1 µM.
Turning to `CCCCCCOC(=O)C1CC(=O)c2ccccc2S1` (stereo not shown) [Compound 22c, Hexyl 4-oxo-thiochromane-2-carboxylate], in data set [1], the “SI (Selectivity Index = LC50/EC50)” value was < 2.1. Moreover, the EC50 in data set [1] (setting [3]) is > 103 µM. The same compound registered a CC50 at 72 h in data set [2] of 213 ± 47.9 µM.
